Experimental findings from ChEMBL document CHEMBL1201862, “PubChem BioAssay data set” (2004) are described below.

Molecules are shown by their SMILES.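 Values below derive from 48-hour exposures of cells grown in 96-well plates, with endpoints linearly interpolated between the two concentrations bracketing the appropriate inhibition level. GI50 is the concentration that inhibits growth by half.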 Calls of active or inactive are those of the source. Cut-off read from the data, not from the text of the source: active = GI50 up to about 1.1 µM and inactive = higher. Bounds are passed on as bounds.

Test systems include OVCAR-5; SK-OV-3; RPMI-8226; SF-295; NCI/ADR-RES; UACC-257; SNB-75; HCC 2998; NCI-H23; HCT-15; U-251; SK-MEL-5; CCRF-CEM; PC-3; NCI-H460; HOP-92; DU-145; MDA-MB-231; K562; SF-268.
Assay in all cases: growth of human tumour cells (NCI), 48 h

In the case of `CCCNC(=S)N/N=C(\C)c1ccc(S(=O)(=O)N(C)c2ccccc2)cc1`, the GI50 is > 67.6 µM (inactive) with OVCAR-5; 45 µM (inactive) in the test with SK-OV-3; > 31.6 µM (inactive) with RPMI-8226; 18.3 µM (inactive) with SF-295; > 89.3 µM (inactive) in the test with NCI/ADR-RES; > 100 µM (inactive) in the test with UACC-257. Besides, the GI50 with SNB-75 is 17.9 µM (inactive); with HCC 2998 it was > 100 µM (inactive); in the test with NCI-H23, > 60.8 µM (inactive); in the test with HCT-15, over 88.5 µM; in the test on U-251 it was 19.7 µM (inactive); in the test on SK-MEL-5 it was > 100 µM (inactive). Besides, the GI50 is > 31.6 µM (inactive) in the test on CCRF-CEM; > 100 µM (inactive) in the test with PC-3; > 100 µM (inactive) with NCI-H460; 20.4 µM (inactive) with HOP-92; > 78.5 µM (inactive) in the test with DU-145; 27.9 µM (inactive) in the test on MDA-MB-231. In addition, the GI50 in the test with K562 is > 100 µM (inactive); in the test on SF-268, 7.06 µM (inactive).

As to `O=C1OCN(c2ccccc2)C12CCN(Cc1ccccc1)CC2`, the GI50 is > 100 µM (inactive) in the test on OVCAR-5; 74.6 µM (inactive) in the test on SK-OV-3; 23.7 µM (inactive) in the test on RPMI-8226; 16.4 µM (inactive) in the test on SF-295; 50.4 µM (inactive) in the test on NCI/ADR-RES; 16.7 µM (inactive) with UACC-257. The GI50 was 19.4 µM (inactive) in the test on SNB-75; 6.62 µM (inactive) in the test with HCC 2998; 53.5 µM (inactive) in the test on NCI-H23; 33.7 µM with HCT-15; 16.9 µM (inactive) in the test with U-251; 19.5 µM (inactive) in the test on SK-MEL-5. For the same compound, the GI50 was 15.5 µM (inactive) with CCRF-CEM; 24.7 µM (inactive) with PC-3; 22.9 µM (inactive) with NCI-H460; 39.3 µM (inactive) with HOP-92; 66.4 µM (inactive) in the test on DU-145; 21.8 µM (inactive) in the test on MDA-MB-231. The GI50 in the test on K562 was 5.35 µM (inactive); in the test with SF-268, 43 µM (inactive).

Regarding `COC(=O)c1cnc(Cl)c([N+](=O)[O-])c1`, the GI50 with OVCAR-5 was 17.7 µM (inactive); in the test on SK-OV-3, 19.3 µM (inactive); with RPMI-8226, 2.52 µM (inactive); with SF-295, 19 µM (inactive); in the test on NCI/ADR-RES, 22.4 µM (inactive); in the test on UACC-257 it was 7.41 µM (inactive). In addition, the GI50 was 20.4 µM (inactive) in the test on SNB-75; 8.34 µM (inactive) in the test on HCC 2998; 17.3 µM (inactive) in the test with NCI-H23; 2 µM in the test on HCT-15; 2.16 µM (inactive) with U-251; 14.1 µM (inactive) with SK-MEL-5. In addition, the GI50 in the test on CCRF-CEM was 2.11 µM (inactive); with PC-3, 10.7 µM (inactive); in the test on NCI-H460, 14.7 µM (inactive); in the test with HOP-92, 2.17 µM (inactive); in the test with DU-145, 9.57 µM (inactive); in the test on MDA-MB-231, 16.3 µM (inactive). Also, the GI50 in the test with K562 was 2.44 µM (inactive); in the test on SF-268 it was 2.64 µM (inactive).

As for `COc1ccc(/C=C2\CCC(CN(C)C)C2=O)cc1OC` (stereo not given), the GI50 in the test with OVCAR-5 was 14.8 µM (inactive); in the test on SK-OV-3, 19.1 µM (inactive); in the test with RPMI-8226, 1.28 µM (inactive); in the test with SF-295, 15.1 µM (inactive); in the test on NCI/ADR-RES, 2.49 µM (inactive); with UACC-257 it was 5.41 µM (inactive). The GI50 in the test on SNB-75 was 8.49 µM (inactive); in the test on HCC 2998, 5.83 µM (inactive); in the test with NCI-H23, 7.82 µM (inactive); with HCT-15, 2.9 µM; with U-251 it was 16.1 µM (inactive); in the test with SK-MEL-5, 10.1 µM (inactive). Further, the GI50 in the test on CCRF-CEM is 1.32 µM (inactive); in the test on PC-3, 7.55 µM (inactive); with NCI-H460, 11.1 µM (inactive); in the test on HOP-92 it was 5.69 µM (inactive); in the test on DU-145, 8.24 µM (inactive); in the test with MDA-MB-231, 2.35 µM (inactive). The GI50 with K562 is 1.17 µM (inactive); in the test on SF-268 it was 10.7 µM (inactive).

For the compound `COc1ccccc1/N=N/C(=N\NC(=O)c1ccc(C)cc1)c1ccc(N(CCC#N)CCC#N)cc1C`, the GI50 is > 100 µM (inactive) in the test on OVCAR-5; 32.5 µM (inactive) in the test on SK-OV-3; 40.4 µM (inactive) in the test on RPMI-8226; 48.5 µM (inactive) with SF-295; 63 µM (inactive) with NCI/ADR-RES; 40.3 µM (inactive) in the test with UACC-257. In addition, the GI50 with SNB-75 is 24.1 µM (inactive); in the test with HCC 2998 it was 42.6 µM (inactive); in the test on NCI-H23, 28.2 µM (inactive); in the test on HCT-15, 41.4 µM; with U-251 it was 43.9 µM (inactive); in the test on SK-MEL-5 it was 20.8 µM (inactive). Besides, the GI50 is 0.693 µM (active) in the test on CCRF-CEM; 35 µM (inactive) in the test on PC-3; 32.3 µM (inactive) in the test on NCI-H460; > 100 µM (inactive) in the test on HOP-92; 32.6 µM (inactive) with DU-145; 47.9 µM (inactive) in the test with MDA-MB-231. Further, the GI50 in the test with K562 was 37.8 µM (inactive); with SF-268 it was 38.1 µM (inactive).

As for `C/C=C1/CN2CCC34C5=CC(=O)C(c6cc7c(cc6OC)N(C)C6=C(C(=O)OC)CC8(CC)CCCN9CCC67C98)=CC5=NC23CCC1C4C(=O)OC` (stereo not given), the GI50 in the test with OVCAR-5 is 12.2 µM (inactive); in the test with SK-OV-3 it was 16.7 µM (inactive); in the test on RPMI-8226, 4.04 µM (inactive); with SF-295, 17.7 µM (inactive); in the test with NCI/ADR-RES it was 18.8 µM (inactive); with UACC-257, 14 µM (inactive). In addition, the GI50 was 8.11 µM (inactive) in the test with SNB-75; 15.7 µM (inactive) with HCC 2998; 14.8 µM (inactive) with NCI-H23; 14.6 µM in the test with HCT-15; 15.2 µM (inactive) in the test on U-251; 15.2 µM (inactive) in the test on SK-MEL-5. The GI50 in the test on CCRF-CEM was 2.28 µM (inactive); in the test on PC-3 it was 13 µM (inactive); with NCI-H460, 14.3 µM (inactive); with HOP-92, 7.85 µM (inactive); in the test on DU-145, 18.7 µM (inactive); with MDA-MB-231, 10.2 µM (inactive). For the same compound, the figures for the GI50 in the test with K562 and with SF-268 were 3.48 µM (inactive) and 18 µM (inactive), respectively.
